Assay results as given in paper PMC5983277 (Marine Drugs, 2018).
Read-outs that look alike come from different tables or passages of the source.

Assays:
[1] = tested on: human epidermoid carcinoma cells (KB); assay: cells; conditions: Homo sapiens, KB, 72 h, read-out: percentage of inhibition of cellular proliferation of KB cells
Protocol: (§1) The human cell line KB originated from the National Cancer Institute (NCI) and was grown in Dulbecco’s Modified Eagle Medium (D-MEM) medium supplemented with 10% foetal calf serum, in the presence of penicillin, streptomycin, and fungizone in a 75 mL flask under 5% CO2. A total of 600 cells were plated in 96-well tissue culture plates in 200 µL of medium and treated 24 h later with 2 μL of stock solution of compounds dissolved in DMSO using a Biomek 3000 (Beckman-Coulter, Brea, CA, USA). Controls received the same volume of DMSO (1% final volume). After 72 h exposure, cell titer 96 Aqueous One solution (Promega, Madison, WI, USA) was added and incubated for 3 h at 37 °C: the absorbance was monitored at 490 nm, and results were expressed as the inhibition of cell proliferation calculated as the ratio [(1 − (OD490 treated/OD490 control)) × 100] in triplicate experiments.

Eel AChE = biological target: Eel AChE; set-up: key to mode of AChE inhibition: NCI: non competitive inhibition; CI: competitive inhibition; ND: non described; conditions: cited from earlier work; for IC50: read-out: AChE inhibition IC50
Insect recombinant AChE = biological target: Insect recombinant AChE; set-up: method as in Sepcic et al. 2001 [33]; key to mode of AChE inhibition: NCI: non competitive inhibition; CI: competitive inhibition; ND: non described; conditions: ref Sepcic et al. 2001 [33], cited from earlier work
Human recombinant AchE = tested on: Human recombinant AchE; set-up: method as in Sirimangkalakitti et al. 2015 [32]; key to mode of AChE inhibition: NCI: non competitive inhibition; CI: competitive inhibition; ND: non described; conditions: ref Sirimangkalakitti et al. 2015 [32], cited from earlier work; for IC50: read-out: AChE inhibition IC50
[2] = tested on: Poecilia reticulata (guppy); assay: Guppy acute toxicity bioassay (bathing, 1 h); type: in vivo; conditions: guppies
Protocol: (§2) The screening of our French Polynesian sponges extract library was performed on acetylcholinesterase inhibitor (AChE) in the aim to investigate a possible chemical defense of sessile organisms on the reef against fishes, their main predators. […] In order to try to evaluate the effect of psammaplysene D in the environment, it was further tested on fresh water fish (guppy, Poecilia reticulata) and reef fish (Acanthurus triostegus) feeding experiment using bathing with or without the bioactive compound. Guppies are fed with commercial flakes, but the wild reef fish feed on natural coral heads, and their appetite evaluated by counting the bites on the corals. Two experiments were run on guppies using Suberea ianthelliformis crude extract and purified psammaplysene D (1): an acute toxicity bioassay (100 μg/mL of crude extract or purified psammaplysene D (1), 1 h) and a chronic toxicity (5 μg/mL of crude extract or 1 μg/mL of purified psammalysene D (1), 72 h).
5 to 8 cm long guppies (Poecilia reticulata) were collected at night in a private fresh water pool at Papara (Tahiti, French Polynesia) and immediately acclimated at the laboratory temperature (25 °C). After acclimatization, fishes were parted in two 2 L tanks: one for the control group treated with solvent (N = 5). Another experiment was performed using a 1 h treatment with 100 μg/mL of crude extract of the sponge or purified psammaplysene D (1) to check their acute toxicity.

[3] = tested on: Poecilia reticulata (guppy); assay: Guppy chronic (sub-lethal) exposure, feeding on flakes; type: in vivo; conditions: guppies, sub-lethal dose 1 μg/mL purified compound, 24 h exposure (72 h experiment)
Protocol: as §2
5 to 8 cm long guppies (Poecilia reticulata) were collected at night in a private fresh water pool at Papara (Tahiti, French Polynesia) and immediately acclimated at the laboratory temperature (25 °C). After acclimatization, fishes were parted in two 2 L tanks: one for the control group treated with solvent (N = 5). […]

in vitro = conditions: human
Protocol: as §1

AChE = AChE activity in brain and gill extracts of exposed guppies; type: in vivo; conditions: guppies after 1 h exposure to 100 µg/mL, N = 5, p < 0.05
Protocol: Brains and gills of these guppies were extracted and the AChE activity measured on the extracts (Figure 7a,b) [29].
Figure 7 (a) AChE activity, U·mg^−1, after 1 h exposure to 100 µg/mL of Psammalysene D (1). […] Boxplot distribution was made with 5 fish (N = 5).
All the values of AChE activity are represented in a boxplot distribution, because of non-normality of variable distribution (N = 4 or 5). The significant differences between controls and treatments (p-value p < 0.05) were analyzed with non-parametric test of Wilcoxon Mann Whitney. […] All statistical assays were executed using R software (R-3.2.0, The R Foundation for Statistical Computing, Vienna, Austria).

[4] = tested on: Acanthurus triostegus (reef fish); assay: Reef fish feeding behavior experiment (bites on coral rubble); type: in vivo; conditions: for number of bites on coral pieces per recruit and per hour (in words): A. triostegus recruits (larvae undergoing metamorphosis), 1 μg/mL in tank, 72 h, p < 0.01
Protocol: Manini (Acanthurus triostegus) were caught during new moon nights on the foreshore puddles at Tema’e public beach. Recruits (fish larvae undergoing metamorphosis) and juveniles (larvae after the recruits stage) were collected and immediately used for the experiments. Natural lagoon sea-water was used and UV-sterilized prior use. Three conditions were tested on three groups: control, solvent, 1 μg/mL sponge extract treatment, with 4 or 5 fishes in each 3 L tank. The fishes were exposed under semi-static system for 72 h, the experimental solutions were renewed every 24 h to maintain clean experimental conditions. The experiments were performed with fish recruits and juveniles. Rubbles were disposed in each aquarium 1 h/day during 3 days. Feeding behavior experiment consists in counting the overall number of bites on those rubbles in each aquarium. Six videos sequences (N = 6) of 5 or 10 min per aquarium and per day were analyzed. Results are expressed in number of bites per fish and per hour.
All the values of AChE activity are represented in a boxplot distribution, because of non-normality of variable distribution (N = 4 or 5). The significant differences between controls and treatments (p-value p < 0.05) were analyzed with non-parametric test of Wilcoxon Mann Whitney. In feeding deterrent assay, pairs significant differences between different conditions (p < 0.05) were tested with non-parametric Kruskal Wallis test. All statistical assays were executed using R software (R-3.2.0, The R Foundation for Statistical Computing, Vienna, Austria).

[5] = biological target: T1, acetylcholinesterase (AChE) (Homo sapiens, UniProt P22303); assay: Acetylcholinesterase inhibition assay (Ellman's colorimetric method) and kinetic study; type: biochemical
T1 construct: purchased Sigma-Aldrich
Protocol: The crude extract of the sponge and the purified psammaplysene D (1) were dissolved in DMSO at 10 mg/mL, stored at −20 °C and diluted subsequently 100 times in H2O prior testing. Determination of AChE-inhibitory activity was measured according the Ellman’s colorimetric method, in 96-well tissue culture plates. All reagents, buffers and salts were purchased from Sigma-Aldrich (Saint-Louis, MO, USA). Galantamine was used as a positive control for each analysis. Solvent controls received the same volume of water. After a 30 min incubation at 25 °C in the dark, absorbance was monitored at λ = 405 nm. Results were expressed as the percentage of enzyme inhibition calculated as the ratio: 100 × (ODcontrol − ODtreated)/(ODcontrol − ODblank), where the blanks are the wells without AChE. Serial dilutions of the compound or extract were prepared (100, 50, 25, 12.5, 6.25, 3.12, 1.56, and 0.78 μg/mL) and tested according to the same procedure using 10 μL of each solution. IC50 values were graphically determined by plotting the percentage of inhibition against the compound concentrations. Each assay was performed in triplicate and results are expressed as mean values ± S.D.
The inhibition mode of psammaplysene D on AChE was determined while measuring the enzyme activity in presence of an increasing concentration of ATCI (0.024, 0.049, 0.098, 0.19, 0.39, 0.78, 1.57, and 3.15 μM), in absence or presence of 2 μg/mL final concentration of purified psammaplysene D. The inhibition mode, Vmax, and KM values were determined by double-reciprocal Lineweaver and Burk plot analysis (1934) of the data obtained.

T1 sequence (P22303 32-614, species assumed): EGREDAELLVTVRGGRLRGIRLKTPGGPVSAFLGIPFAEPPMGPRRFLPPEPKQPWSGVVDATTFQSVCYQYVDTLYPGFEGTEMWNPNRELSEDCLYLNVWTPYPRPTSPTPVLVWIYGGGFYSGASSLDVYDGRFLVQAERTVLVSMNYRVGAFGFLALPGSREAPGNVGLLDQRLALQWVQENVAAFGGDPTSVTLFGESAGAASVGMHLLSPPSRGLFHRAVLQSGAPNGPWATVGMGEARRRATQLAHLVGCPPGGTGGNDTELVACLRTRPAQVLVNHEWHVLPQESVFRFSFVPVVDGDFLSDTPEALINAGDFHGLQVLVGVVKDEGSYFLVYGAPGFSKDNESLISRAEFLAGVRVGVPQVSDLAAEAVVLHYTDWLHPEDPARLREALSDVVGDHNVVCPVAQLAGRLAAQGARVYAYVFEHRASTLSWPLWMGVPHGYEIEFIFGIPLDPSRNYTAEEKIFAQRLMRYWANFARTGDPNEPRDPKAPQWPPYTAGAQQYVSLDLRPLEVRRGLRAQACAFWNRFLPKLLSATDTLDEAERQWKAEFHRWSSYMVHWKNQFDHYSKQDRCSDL

Compound: O=C(O)c1cc(O)c2c(O)ccc(O)c2n1 [5-hydroxy xanthenuric acid (11), 4,5,8-trihydroxyquinoline-2-carboxilic acid]
- inhibition at 1 µM [1]: 6 ± 0.5%
- inhibition at 10 µM [1]: 25 ± 1%

Compound: CN(C)CCc1cc(Br)c(OCCCN(C)C(=O)C(Cc2cc(Br)c(O)c(Br)c2)N(C)C)c(Br)c1 (centres unmarked) [Anomoian C (6), O-demethyl anomoian B]
- inhibition at 1 µM [1]: 15 ± 3%
- inhibition at 10 µM [1]: 28 ± 5%

Compound: CNC(Cc1cc(Br)c(O)c(Br)c1)C(=O)N(C)CCCOc1c(Br)cc(CCN(C)C)cc1Br (centres unmarked) [Anomoian D (7), O-demethyl anomoian A]
- inhibition at 1 µM [1]: 17 ± 2%
- inhibition at 10 µM [1]: 29 ± 2%

Compound: CNC(Cc1cc(Br)c(OCCCN(C)C)c(Br)c1)C(=O)N(C)CCCOc1c(Br)cc(CCN(C)C)cc1Br (centres unmarked) [Anomoian E (8), anomoian E]
- inhibition at 1 µM [1]: 6 ± 2%
- inhibition at 10 µM [1]: 82 ± 1%

Compound: CN(C)CCCOc1c(Br)cc(CC(C(=O)N(C)CCCOc2c(Br)cc(CCN(C)C)cc2Br)N(C)C)cc1Br (centres unmarked) [Anomoian F (9), anomoian F]
- inhibition at 1 µM [1]: 20 ± 0.6%
- inhibition at 10 µM [1]: 100 ± 0.5%

Compound: Br.COc1c(Br)cc(C/C(=N\O)C(=O)NCCc2cc(Br)c(OCCCN)c(Br)c2)cc1Br [Aplysamine-4]
- Ki (Eel AChE; ref Sepcic et al. 2001 [33], read-out: AChE inhibition KI): 16 µM
- mode of AChE inhibition (Eel AChE; ref Sepcic et al. 2001 [33]): NCI
- Ki (Insect recombinant AChE; read-out: AChE inhibition KI): 2 µM
- mode of AChE inhibition (Insect recombinant AChE): NCI

Compound: COC1=C(Br)C(O)C2(C=C1Br)CC(C(=O)NCC(O)COc1c(Br)cc(C3CNC(=O)O3)cc1Br)=NO2 (centres unmarked) [Fistularin 1]
- IC50 (Human recombinant AchE): 47.5 µM

Compound: COC1=C(Br)[C@H](O)[C@@]2(C=C1Br)CC(C(=O)NCCCCCNC(=O)C1=NO[C@]3(C=C(Br)C(OC)=C(Br)[C@@H]3O)C1)=NO2 [Homoaerothionin]
- IC50 (Human recombinant AchE): 4.5 µM
- mode of AChE inhibition (Human recombinant AchE): CI

Compound: CN[C@@H](Cc1cc(Br)c(OC)c(Br)c1)C(=O)NCCc1cc(Br)c(OCCCN(C)C)c(Br)c1 [Isoanomoian A]
- IC50 (Eel AChE; ref Olatunji et al. 2014 [31]): 70 µM
- mode of AChE inhibition (Eel AChE; ref Olatunji et al. 2014 [31]): NCI

Compound: CN(C)CCc1cc(Br)c(O)c(Br)c1 [N,N-dimethyldibromotyramine (10), N,N-dimethyldibromotyramine]
- inhibition at 1 µM [1]: 89 ± 1%
- inhibition at 10 µM [1]: 100 ± 1%

Compound: CN(C)CCCOc1c(Br)cc(/C=C/C(=O)N(C)CCCOc2c(Br)cc(CCN(C)C)cc2Br)cc1Br [Psammaplysene D (1), psammaplysene D]
- behaviour during acute exposure ([2]; 100 μg/mL, bathing): totally confused and had uncontrolled mobility
- acute toxicity outcome ([2]; 100 μg/mL, one hour bathing): death
- time to onset of behavioural effects after addition to the tank ([2]; acute exposure 100 μg/mL): 20 min
- feeding behaviour towards food flakes [3]: loss of appetite from the first day of experiment
- feeding behaviour towards food flakes ([3]; listed as psammalysene D (1)): passivity of the fish towards the food flakes
- IC50 at 72 h (in vitro): 0.7 µM
- inhibition at 1 µM [1]: 95 ± 0.5%
- inhibition at 10 µM [1]: 100 ± 0.2%
- AChE activity in gills (in words) (AChE): mild but significant decrease
- behaviour of reef fish juveniles ([4]; A. triostegus juveniles): did not seem to be impacted
- number of bites on coral pieces per recruit and per hour (in words) [4]: loss of appetite from the first day of experiment
- number of bites on coral pieces per recruit and per hour (in words) ([4]; listed as psammaplysene D (1)): significantly and readily decreased the number of bites
- IC50 [5]: 1.3 µM
- mode of AChE inhibition ([5]; Lineweaver-Burk plot): mixed competitive/non-competitive inhibition
- Vmax ([5]; Lineweaver-Burk, with 2 μg/mL psammaplysene D, decreasing from 0.0036): 0.0007 µmol/min

Compound: CN(C)CCc1cc(Br)c(OCCCN(C)C(=O)/C=C/c2cc(Br)c(O)c(Br)c2)c(Br)c1 [Psammaplysene F (2), psammaplysene F]
- inhibition at 1 µM [1]: 20 ± 0.2%
- inhibition at 10 µM [1]: 73 ± 2%

Compound: CN(C)CCc1cc(Br)c(OCCCN(C)C(=O)/C=C\c2cc(Br)c(O)c(Br)c2)c(Br)c1 [Psammaplysene G (3), psammaplysene G]
- inhibition at 1 µM [1]: 17 ± 1%
- inhibition at 10 µM [1]: 75 ± 0.4%

Compound: Aplysanzine A
- IC50 (Eel AChE; ref Olatunji et al. 2014 [31]): 104 µM
- mode of AChE inhibition (Eel AChE; ref Olatunji et al. 2014 [31]): NCI

Compound: Purealidine Q
- IC50 (Eel AChE; ref Olatunji et al. 2014 [31]): 1.2 µM
- mode of AChE inhibition (Eel AChE; ref Olatunji et al. 2014 [31]): NCI
